O=C1Cc2cc(F)ccc2N1
solubility (mole fraction)
Settings	278.15 K	283.15 K	288.15 K	293.15 K	298.15 K	303.15 K	308.15 K	313.15 K	318.15 K	323.15 K
in DMF	0.226	0.239	0.253	0.27	0.289	0.309	0.331	0.357	0.384	0.419
in THF	0.0838	0.0938	0.104	0.115	0.129	0.144	0.162	0.183	0.209	0.237
in acetone	0.0551	0.0618	0.0678	0.0764	0.085	0.096	0.108	0.123	0.14	0.16
in acetonitrile	0.02	0.0227	0.0261	0.03	0.0344	0.0399	0.0463	0.0537	0.0632	0.0748
in ethyl acetate	0.0149	0.0165	0.0185	0.0206	0.0234	0.0265	0.03	0.0343	0.0394	0.0459
in isopropanol	0.0197	0.0225	0.0263	0.0309	0.0367	0.0436	0.0506	0.0601	0.0717	0.0857
in methanol	0.0247	0.0296	0.0358	0.0422	0.0504	0.0594	0.0704	0.0841	0.0998	0.12
in n-hexane	0.000387	0.000492	0.000623	0.000784	0.000984	0.00125	0.00153	0.00196	0.00247	0.00311
in n-propanol	0.0293	0.0336	0.0388	0.0445	0.0513	0.0598	0.0688	0.0798	0.093	0.11
